Each structure is given as a SMILES string.

The Ki is a dissociation constant, usually derived from enzyme kinetics or from competition with a known ligand. One may read the EC50 as the concentration needed to bring the measured effect to its halfway point.

The target of experiment [1] is human emopamil binding protein and human 7-dehydrocholesterol reductase co-expressing cell membrane (Homo sapiens (Human), UniProt Q15125). In words: hEBP-DHCR7 radioligand filtration binding assay with [3H]-Compound 118A*. To be noted: radioligand [3H]-Compound 118A*; HEK293 membrane co-expressing hEBP and DHCR7. The method in brief: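 HEK293 membranes transiently co-expressing hEBP and hDHCR7 (10 μg/well) were incubated with [3H]-Compound 118A* (added at 25 nM) and compounds (8 doses, final 0.06–5000 nM, n=2) for 3 h at 22 °C. Bound radioactivity was read after PEI-treated GF/B filtration. IC50 came from a Hill fit of % inhibition and was converted to Ki.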
Sequence of human emopamil binding protein and human 7-dehydrocholesterol reductase co-expressing cell membrane (Q15125 whole entry): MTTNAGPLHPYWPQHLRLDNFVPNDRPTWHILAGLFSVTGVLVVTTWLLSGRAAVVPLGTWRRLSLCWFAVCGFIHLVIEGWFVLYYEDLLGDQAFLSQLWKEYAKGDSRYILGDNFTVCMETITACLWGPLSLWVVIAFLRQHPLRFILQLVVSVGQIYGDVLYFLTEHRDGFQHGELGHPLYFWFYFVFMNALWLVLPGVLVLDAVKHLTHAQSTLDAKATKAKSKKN

Experiment [2] deals with zymostenol accumulation in EpiSC-derived OPCs (EBP). In words: GC/MS-based sterol profiling, zymostenol accumulation. The experiment is classed as cell-based, mouse. To be noted: Mus musculus, 24 h, 8 doses from 0.15 nM to 333 nM, read-out: mZymo GCMS EC50. The method in brief:
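EpiSC-derived mouse OPCs plated at 100,000 cells/well in N2B27 without growth factors and treated 24 h. Sterols extracted, silylated with BSTFA and measured by GC/MS (EI, full scan), quantified against cholesterol-d7. Zymostenol normalized to levels after 24 h with 100 nM positive control reference.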

Another experiment has as its system EpiSC-derived OPCs. In words: In vitro phenotypic screening of OPCs, MBP high-content imaging. The experiment is classed as cell-based, mouse. To be noted: Mus musculus, 72 h, percentage of MBP+ oligodendrocytes; 3 days; 0.5 nM to 1000 nM; read-out: mOPC EC50. In outline:
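Mouse EpiSC-derived OPCs seeded without growth factors and exposed 3 days at 37° C. to 8-point doses, 1000 nM to 0.5 nM final. Fixed cells stained for MBP and DAPI; high-content imaging gave percentage MBP+ oligodendrocytes, with EC50 from Hill-equation fit.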

In the case of `CC(C)(Cc1ccc(C2CCC(F)(F)CC2)c(Cl)c1)CN1CCC2(C1)CS(=O)(=O)C2` [Example 139, 6-(3-(3-Chloro-4-(4,4-difluorocyclohexyl)phenyl)-2,2-dimethylpropyl)-2-thia-6-azaspiro[3.4]octane 2,2-dioxide], in experiment [1], the Ki is 9.23 nM. The results for the EC50 (in experiment [2]; in the experiment on EpiSC-derived OPCs) were 1.6 nM and 0.46 nM, respectively.
On the same counts, the results for `C[C@@H](CN1CCC2(CC1)CS(=O)(=O)C2)Oc1ccc(F)c(F)c1` (single isomer, unassigned) [221A*] are 25.5 nM, 1.6 nM and 4.9 nM.
On the same counts, the results for `C[C@H](Cc1ccc(C(F)(F)F)cc1)CN1CCC2(C1)CS(=O)(=O)C2` (single isomer, unassigned) [114B*] are 5.85 nM, 0.82 nM and 0.72 nM.
On the same counts, the results for `CC(C)(CN1CCC2(C1)CS(=O)(=O)C2)Oc1cccc(OC(F)(F)F)c1` [Example 131, 6-(2-Methyl-2-(3-(trifluoromethoxy)phenoxy)propyl)-2-thia-6-azaspiro[3.4]octane 2,2-dioxide] are 118 nM, 1.6 nM and 7.8 nM.
Regarding `CC(C)(CN1CCC2(C1)CS(=O)(=O)C2)Oc1ccc(C2CCC2)cc1` [Example 129, 6-(2-(4-Cyclobutylphenoxy)-2-methylpropyl)-2-thia-6-azaspiro[3.4]octane-2,2-dioxide], in experiment [1], the Ki was determined as 11.8 nM. Moreover, the results for the EC50 (in experiment [2]; in the experiment with EpiSC-derived OPCs) were 19 nM and 190 nM, respectively.
The like results for `O=S1(=O)CCC2(CC1)CN(CCOc1ccc(C(F)(F)F)cc1)C2` [Example 201, 2-(2-(4-(Trifluoromethyl)phenoxy)ethyl)-7-thia-2-azaspiro[3.5]nonane 7,7-dioxide] were, in that order, 25.7 nM, 3.2 nM and 5.5 nM.

Values taken from patent US20240400579A1, “SPIROCYCLIC MODULATORS OF CHOLESTEROL BIOSYNTHESIS AND THEIR USE FOR PROMOTING REMYELINATION” (GENENTECH, INC., priority 2021, published 2024).
